# Data: ChEMBL document CHEMBL1201862, “PubChem BioAssay data set” (2004)
# Calls of active or inactive are those of the source.
# How the values were obtained:
# [1] = DRD fibroblast viability loss – cell-based, non-viral oncogenic, luminescence, dose response (AID 1934); assay type: functional; details: Homo sapiens
# BJ [2] = experiment: cells; assay type: functional, cell-based; details: Homo sapiens
# [3] = target: T1, Heat shock factor protein 1 (Mus musculus, UniProt P38532); experiment: decrease of HSF1-responsive luciferase luminescence – cell-based, NIH3T3, dose retest, confirmation (AID 2382); assay type: functional;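 note: NIH3T3 fibroblasts with HSF1-driven luciferase reporter stressed by proteasome inhibitor MG132; luminescence from HSF1-driven luciferase expression after 8 hours of MG132 stress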
# T1 sequence (P38532 whole entry): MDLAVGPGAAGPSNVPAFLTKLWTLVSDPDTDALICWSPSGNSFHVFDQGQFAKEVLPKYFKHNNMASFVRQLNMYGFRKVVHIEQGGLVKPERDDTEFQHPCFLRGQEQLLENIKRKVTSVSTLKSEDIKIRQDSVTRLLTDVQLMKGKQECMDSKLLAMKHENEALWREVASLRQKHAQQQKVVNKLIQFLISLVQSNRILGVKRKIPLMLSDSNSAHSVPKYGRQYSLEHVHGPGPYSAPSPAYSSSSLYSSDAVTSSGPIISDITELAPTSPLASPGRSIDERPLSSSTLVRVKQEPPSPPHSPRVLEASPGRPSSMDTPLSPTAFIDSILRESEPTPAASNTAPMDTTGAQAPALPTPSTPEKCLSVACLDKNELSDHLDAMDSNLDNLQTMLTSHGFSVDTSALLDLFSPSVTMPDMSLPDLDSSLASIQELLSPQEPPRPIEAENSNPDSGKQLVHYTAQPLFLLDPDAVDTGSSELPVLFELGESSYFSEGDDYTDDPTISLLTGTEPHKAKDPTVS
# BJ [4] = experiment: BJ-TERT-LT-ST fibroblast viability loss – cell-based, RAS-independent, luminescence, dose response (AID 1935); assay type: functional; details: Homo sapiens;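 note: BJ fibroblasts immortalized with TERT plus LT and ST oncogenes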
# A-375 = experiment: proliferation inhibition in MITF-low A375 cells – cell-based, cherry-pick samples, set 2, counter-screen for MITF modulator project, dose response (AID 540335); assay type: functional; details: Homo sapiens
# [5] = target: T2, Microphthalmia-associated transcription factor (Homo sapiens, UniProt O75030); experiment: reducers of TRPM1 reporter luminescence, concentration series – cell-based, SK-MEL-5, cherry-picked, set 3, MITF inhibitor project, dose response (AID 493073); assay type: functional;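 note: SK-MEL-5 melanoma cells with luciferase driven by the MITF target TRPM1 promoter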
# T2 sequence (O75030 whole entry): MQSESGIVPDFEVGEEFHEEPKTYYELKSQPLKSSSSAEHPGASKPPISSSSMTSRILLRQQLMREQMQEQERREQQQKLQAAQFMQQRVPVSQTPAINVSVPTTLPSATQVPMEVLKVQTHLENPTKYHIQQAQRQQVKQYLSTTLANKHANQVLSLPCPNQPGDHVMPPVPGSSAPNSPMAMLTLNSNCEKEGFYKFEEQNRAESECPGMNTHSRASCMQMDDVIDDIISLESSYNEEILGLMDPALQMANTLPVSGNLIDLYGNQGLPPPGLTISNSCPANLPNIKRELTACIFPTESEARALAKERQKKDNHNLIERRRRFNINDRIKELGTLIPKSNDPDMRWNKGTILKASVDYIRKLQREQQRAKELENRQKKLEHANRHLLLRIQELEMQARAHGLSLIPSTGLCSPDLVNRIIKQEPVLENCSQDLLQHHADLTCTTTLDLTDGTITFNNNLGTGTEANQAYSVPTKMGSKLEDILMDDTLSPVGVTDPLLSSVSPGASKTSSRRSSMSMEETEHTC
# BJ [6] = experiment: BJ-TERT fibroblast viability loss – cell-based, RAS-independent, luminescence, dose response (AID 1933); assay type: functional; details: Homo sapiens
# Streptococcus = experiment: GAS UMAA2166 growth inhibition – luminescence, BacTiterGlo, counter-screen for streptokinase expression inhibitor project, dose response (AID 1915); assay type: functional, organism-based;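 note: potency for reduction of bacterial viability or growth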
# [7] = tested on: Streptococcus sp. 'group A'; experiment: Streptococcus pyogenes SK(-)GAS viability under kanamycin – luminescence, BacTiterGlo, confirmation, counter-screen for streptokinase expression inhibitor project, dose response (AID 1900); assay type: functional, organism-based
# CHO-K1 = experiment: (§1) Counterscreen for antagonists of the orexin 1 receptor (OX1R; HCRTR1): Homogeneous time resolved fluorescence (HTRF)-based cell-based dose response assay to identify antagonists of the parental CHO-K1 cell line. [Related pubchem assays (depositor defined):AID434989, AID435008, AID463079, AID485270, AID492963, AID492964, AID492965, AID493232, AID504699, AID504701]; assay type: functional; details: Cricetulus griseus
# [8] = as §1, with “Fluorescence-based” for “Homogeneous time resolved fluorescence (HTRF)-based”, “cell-based high throughput” for “cell-based”, “CHO” for “CHO-K1”; assay type: functional
# [9] = viability of uninfected HEp-2 cells – cell-based, HTS, cytotoxicity control for RSV inhibitor project, dose response (AID 2410); assay type: functional; details: human respiratory syncytial virus
# [10] = target: T3, Orexin/Hypocretin receptor type 1 (Homo sapiens, UniProt O43613); experiment: (§2) Fluorescence-based cell-based high throughput dose response assay for antagonists of the orexin 1 receptor (OX1R; HCRTR1). [Related pubchem assays (depositor defined):AID434989, AID435008, AID463079, AID485270, AID492963, AID492964, AID492965, AID493232, AID504717, AID504718]; assay type: functional
# T3 sequence (O43613 whole entry): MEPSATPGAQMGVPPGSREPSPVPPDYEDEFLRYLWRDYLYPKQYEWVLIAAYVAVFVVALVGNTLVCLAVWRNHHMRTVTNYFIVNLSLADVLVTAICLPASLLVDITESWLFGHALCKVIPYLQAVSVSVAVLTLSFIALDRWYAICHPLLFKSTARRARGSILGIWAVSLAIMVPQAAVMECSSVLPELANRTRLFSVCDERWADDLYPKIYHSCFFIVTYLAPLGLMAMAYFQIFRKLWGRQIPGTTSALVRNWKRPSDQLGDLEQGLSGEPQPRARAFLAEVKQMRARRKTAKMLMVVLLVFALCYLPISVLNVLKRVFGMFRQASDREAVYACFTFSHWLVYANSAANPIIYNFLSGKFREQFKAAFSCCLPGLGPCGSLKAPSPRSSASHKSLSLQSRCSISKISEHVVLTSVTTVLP
# [11] = target: T3, Orexin/Hypocretin receptor type 1; experiment: as §2, with “Homogeneous Time Resolved Fluorescence (HTRF)-based” for “Fluorescence-based”; assay type: functional
# Cytochrome P450 3A4 = Cytochrome P450 3A4 (Homo sapiens, UniProt P08684);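 note: CYP3A4 tested as one member of a cytochrome P450 panel screen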
# Chain of Cytochrome P450 3A4 (P08684 whole entry): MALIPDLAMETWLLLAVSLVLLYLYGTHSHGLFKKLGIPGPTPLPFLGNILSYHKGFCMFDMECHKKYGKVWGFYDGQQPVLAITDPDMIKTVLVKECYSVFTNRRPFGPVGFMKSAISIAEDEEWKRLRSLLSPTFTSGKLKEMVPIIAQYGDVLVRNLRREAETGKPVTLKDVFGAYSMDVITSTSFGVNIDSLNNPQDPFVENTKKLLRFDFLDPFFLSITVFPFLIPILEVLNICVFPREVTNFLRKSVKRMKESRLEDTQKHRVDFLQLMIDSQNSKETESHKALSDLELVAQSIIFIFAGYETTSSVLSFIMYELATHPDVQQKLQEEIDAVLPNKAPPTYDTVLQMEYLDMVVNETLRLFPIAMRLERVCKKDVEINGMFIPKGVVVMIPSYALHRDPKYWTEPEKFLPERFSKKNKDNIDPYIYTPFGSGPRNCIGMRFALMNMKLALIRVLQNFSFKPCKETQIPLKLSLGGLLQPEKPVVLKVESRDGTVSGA
# Beta-lactamase [12] = target: Beta-lactamase (Salmonella choleraesuis (strain SC-B67), UniProt Q5J463); experiment: Epi-absorbance-based counterscreen for selective VIM-2 inhibitors: dose response biochemical high throughput screening assay to identify inhibitors of TEM-1 serine-beta-lactamase.
# Chain of Beta-lactamase (Salmonella choleraesuis (strain SC-B67), UniProt Q5J463) (Q5J463 whole entry): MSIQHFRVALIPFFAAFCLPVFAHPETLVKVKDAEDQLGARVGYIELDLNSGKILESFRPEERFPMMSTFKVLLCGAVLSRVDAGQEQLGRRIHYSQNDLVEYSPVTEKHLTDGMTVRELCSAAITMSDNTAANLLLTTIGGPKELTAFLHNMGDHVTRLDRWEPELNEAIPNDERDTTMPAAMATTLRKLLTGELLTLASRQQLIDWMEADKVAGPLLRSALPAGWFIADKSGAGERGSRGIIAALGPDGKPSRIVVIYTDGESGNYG
# Beta-lactamase [13] = target: T4, Beta-lactamase (Pseudomonas aeruginosa, UniProt Q79MP6); experiment: inhibition of IMP-1 beta-lactamase activity – biochemical, epi-absorbance, selectivity assay for VIM-2 inhibitor project, dose response (AID 1920)
# T4 sequence (Q79MP6 whole entry): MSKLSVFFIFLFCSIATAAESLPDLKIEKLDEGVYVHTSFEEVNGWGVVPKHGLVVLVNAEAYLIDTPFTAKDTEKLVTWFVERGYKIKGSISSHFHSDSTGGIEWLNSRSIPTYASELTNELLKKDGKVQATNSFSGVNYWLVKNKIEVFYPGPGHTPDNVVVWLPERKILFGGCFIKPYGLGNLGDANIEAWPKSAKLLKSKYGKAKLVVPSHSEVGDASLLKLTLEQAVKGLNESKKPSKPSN
# Beta-lactamase [14] = target: T4, Beta-lactamase; experiment: […] counterscreen for selective VIM-2 inhibitors: dose response biochemical high throughput screening assay to identify inhibitors of IMP-1 metallo-beta-lactamase.
# [15] = target: DNA dC->dU-editing enzyme APOBEC-3A (Homo sapiens, UniProt P31941); experiment: A3A deaminase inhibition for selectivity – biochemical, dose response (AID 504722); assay type: functional
# Chain of DNA dC->dU-editing enzyme APOBEC-3A (P31941 whole entry): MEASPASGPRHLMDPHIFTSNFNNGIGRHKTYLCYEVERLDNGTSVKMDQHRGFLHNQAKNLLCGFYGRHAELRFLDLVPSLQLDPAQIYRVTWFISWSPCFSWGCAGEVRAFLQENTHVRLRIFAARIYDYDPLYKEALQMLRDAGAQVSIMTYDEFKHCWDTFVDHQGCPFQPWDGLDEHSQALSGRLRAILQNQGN
# [16] = target: DNA dC->dU-editing enzyme APOBEC-3G (Homo sapiens, UniProt Q9HC16); experiment: Dose Response confirmation of small molecule APOBEC3G DNA Deaminase Inhibitors via a fluorescence-based single-stranded DNA deaminase assay. [Related pubchem assays (depositor defined):AID493012, AID493028]; assay type: functional
# Chain of DNA dC->dU-editing enzyme APOBEC-3G (Q9HC16 whole entry): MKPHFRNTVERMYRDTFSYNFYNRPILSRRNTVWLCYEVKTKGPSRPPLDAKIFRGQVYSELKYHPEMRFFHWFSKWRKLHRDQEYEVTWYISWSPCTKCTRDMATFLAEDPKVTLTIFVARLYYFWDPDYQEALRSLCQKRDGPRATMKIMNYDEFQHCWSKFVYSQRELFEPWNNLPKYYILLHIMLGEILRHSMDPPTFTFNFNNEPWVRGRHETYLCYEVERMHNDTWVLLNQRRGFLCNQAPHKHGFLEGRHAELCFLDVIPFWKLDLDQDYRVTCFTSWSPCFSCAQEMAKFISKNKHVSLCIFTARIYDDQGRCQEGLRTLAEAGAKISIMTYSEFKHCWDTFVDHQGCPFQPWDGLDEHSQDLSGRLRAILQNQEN
# [17] = target: FAD-linked sulfhydryl oxidase ALR (Homo sapiens, UniProt P55789); experiment: ALR-catalysed DTT oxidation blockers – biochemical, H2O2 detection, luminescence, cherry-pick, dose response (AID 493248)
# Chain of FAD-linked sulfhydryl oxidase ALR (P55789 whole entry): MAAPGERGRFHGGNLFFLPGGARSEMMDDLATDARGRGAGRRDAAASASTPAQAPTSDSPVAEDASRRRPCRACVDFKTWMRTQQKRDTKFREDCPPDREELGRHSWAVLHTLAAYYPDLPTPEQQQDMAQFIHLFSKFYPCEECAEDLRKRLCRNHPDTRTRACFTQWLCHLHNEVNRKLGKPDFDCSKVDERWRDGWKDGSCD
# [18] = target: T5, G-protein coupled receptor 55 (Homo sapiens, UniProt Q9Y2T6); experiment: inhibition of LPI-stimulated GPR55 beta-arrestin translocation – imaging, U2OS, beta-arrestin-GFP, LPI agonist, primary screen (AID 2013); assay type: functional;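 note: antagonist potency measured as reduced agonist-driven arrestin aggregation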
# T5 sequence (Q9Y2T6 whole entry): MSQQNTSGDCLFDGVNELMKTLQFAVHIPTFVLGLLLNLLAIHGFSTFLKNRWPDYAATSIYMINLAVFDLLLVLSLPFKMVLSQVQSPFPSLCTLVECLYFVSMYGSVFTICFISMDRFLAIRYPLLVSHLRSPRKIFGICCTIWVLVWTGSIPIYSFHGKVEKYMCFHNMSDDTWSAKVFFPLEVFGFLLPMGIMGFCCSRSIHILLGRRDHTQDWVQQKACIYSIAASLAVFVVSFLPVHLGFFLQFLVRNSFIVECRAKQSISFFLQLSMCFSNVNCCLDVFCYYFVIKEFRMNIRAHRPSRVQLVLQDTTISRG
# Cannabinoid receptor 1 = Cannabinoid receptor 1 (Homo sapiens, UniProt P21554); experiment: SAR analysis of antagonists of the Cannabinoid Receptor 1 using an Image-Based Assay. [Related pubchem assays (depositor defined):AID1961, AID1965]; assay type: functional
# Chain of Cannabinoid receptor 1 (P21554 whole entry): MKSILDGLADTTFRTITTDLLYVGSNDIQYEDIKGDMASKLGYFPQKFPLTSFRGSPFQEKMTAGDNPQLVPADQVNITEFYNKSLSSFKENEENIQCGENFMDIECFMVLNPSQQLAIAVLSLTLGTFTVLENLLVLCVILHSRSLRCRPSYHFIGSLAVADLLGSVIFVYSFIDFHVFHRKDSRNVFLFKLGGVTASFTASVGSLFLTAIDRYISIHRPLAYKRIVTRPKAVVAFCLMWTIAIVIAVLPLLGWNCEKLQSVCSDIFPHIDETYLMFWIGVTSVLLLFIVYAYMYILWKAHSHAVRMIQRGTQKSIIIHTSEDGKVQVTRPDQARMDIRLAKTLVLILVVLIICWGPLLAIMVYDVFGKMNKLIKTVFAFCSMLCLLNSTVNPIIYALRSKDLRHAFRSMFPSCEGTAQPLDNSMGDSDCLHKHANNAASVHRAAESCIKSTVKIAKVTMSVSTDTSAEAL
# Cannabinoid receptor 2 [19] = target: T6, Cannabinoid receptor 2 (Homo sapiens, UniProt P34972); experiment: SAR analysis of agonists of the Cannabinoid Receptor 2 using an Image-Based Assay - Set 2. [Related pubchem assays (depositor defined):AID1961, AID1965]; assay type: functional
# T6 sequence (P34972 whole entry): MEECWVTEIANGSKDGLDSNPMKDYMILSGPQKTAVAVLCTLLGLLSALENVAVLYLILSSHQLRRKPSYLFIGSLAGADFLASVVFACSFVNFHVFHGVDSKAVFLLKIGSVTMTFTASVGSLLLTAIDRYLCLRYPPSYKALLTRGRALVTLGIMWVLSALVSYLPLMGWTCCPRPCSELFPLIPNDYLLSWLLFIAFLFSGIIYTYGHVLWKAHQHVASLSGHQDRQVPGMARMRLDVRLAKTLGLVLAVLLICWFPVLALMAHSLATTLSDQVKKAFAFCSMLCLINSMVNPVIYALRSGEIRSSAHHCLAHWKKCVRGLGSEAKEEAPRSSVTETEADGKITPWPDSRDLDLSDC
# [20] = target: T5, G-protein coupled receptor 55; experiment: SAR analysis of selective Agonists of GPR55 using an Image-Based Assay. [Related pubchem assays (depositor defined):AID1961, AID1965]; assay type: functional
# Cannabinoid receptor 2 [21] = target: T6, Cannabinoid receptor 2; experiment: SAR analysis of antagonists of the Cannabinoid Receptor 2 using an Image-Based Assay - Set 2. [Related pubchem assays (depositor defined):AID1961, AID1965]; assay type: functional
# [22] = Luminescence Cell-Based Dose Retest to Confirm Inhibitors of Cancer Stem Cells. [Related pubchem assays (depositor defined):AID2717, AID2721]; assay type: functional; details: Homo sapiens
# [23] = target: Glyceraldehyde-3-phosphate dehydrogenase (Homo sapiens, UniProt P04406)
# Chain of Glyceraldehyde-3-phosphate dehydrogenase (P04406 whole entry): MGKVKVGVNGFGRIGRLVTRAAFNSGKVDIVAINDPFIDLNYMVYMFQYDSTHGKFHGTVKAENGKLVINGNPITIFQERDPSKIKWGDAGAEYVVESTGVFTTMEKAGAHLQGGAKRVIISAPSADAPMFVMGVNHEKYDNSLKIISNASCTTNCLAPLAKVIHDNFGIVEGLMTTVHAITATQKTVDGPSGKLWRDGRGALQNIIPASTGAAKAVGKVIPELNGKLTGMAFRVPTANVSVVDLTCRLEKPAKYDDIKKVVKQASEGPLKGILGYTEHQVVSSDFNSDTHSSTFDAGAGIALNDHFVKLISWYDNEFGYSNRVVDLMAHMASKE
# [24] = target: T7, Alkaline phosphatase, tissue-nonspecific isozyme (Homo sapiens, UniProt P05186); experiment: potency against alkaline phosphatase TNAP – biochemical, luminescent, dose response, SAR follow-up (AID 1056)
# T7 sequence (P05186 whole entry): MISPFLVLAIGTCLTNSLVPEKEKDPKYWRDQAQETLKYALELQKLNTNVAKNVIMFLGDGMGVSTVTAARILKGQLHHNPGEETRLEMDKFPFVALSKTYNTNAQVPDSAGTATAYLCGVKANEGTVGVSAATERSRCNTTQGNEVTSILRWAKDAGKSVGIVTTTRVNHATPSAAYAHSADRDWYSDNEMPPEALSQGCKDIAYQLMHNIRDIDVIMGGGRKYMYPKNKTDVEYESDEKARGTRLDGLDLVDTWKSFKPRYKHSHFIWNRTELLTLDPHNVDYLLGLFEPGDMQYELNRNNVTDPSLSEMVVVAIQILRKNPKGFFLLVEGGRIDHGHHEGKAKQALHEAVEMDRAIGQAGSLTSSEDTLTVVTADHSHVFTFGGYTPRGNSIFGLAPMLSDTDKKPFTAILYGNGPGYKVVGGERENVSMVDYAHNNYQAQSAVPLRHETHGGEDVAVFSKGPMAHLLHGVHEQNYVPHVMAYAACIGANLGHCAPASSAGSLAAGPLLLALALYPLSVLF
# [25] = target: T5, G-protein coupled receptor 55; experiment: selective activators of receptor GPR55 – imaging, U2OS cells, beta-arrestin-GFP redistribution, primary screen (AID 1961); assay type: functional
# Troponin, cardiac muscle = Troponin, cardiac muscle (Homo sapiens, UniProt P19429+P45379+P63316); experiment: Fluorescence-based biochemical high throughput dose response assay for activators of the calcium sensitivity of cardiac Regulated Thin Filaments (RTF). [Related pubchem assays (depositor defined):AID493008, AID493018, AID504382, AID504383]; assay type: protein-complex assay
compound,measurement,setting,value
CCCCN1C=CC(=C2C(=O)c3ccccc3C2=O)C=C1,EC50,[1],7.63 µM (active)
same,EC50,BJ [2],7.56 µM (active)
same,EC50,[3],0.356 µM (active)
same,EC50,BJ [4],> 150 µM (inconclusive)
same,AC50,A-375,20.6 µM (active)
same,AC50,[5],0.921 µM (active)
same,EC50,BJ [6],6.03 µM (active)
O=C(O)c1ccc(N2C(=O)CC(SC(=NCc3ccc4c(c3)OCO4)Nc3ccc(F)cc3)C2=O)cc1 (centres undefined),EC50,Streptococcus,29 µM (active)
same,EC50,[7],4.89 µM (active)
same,IC50,CHO-K1,> 66.2 µM (inactive)
same,IC50,[8],23.2 µM (inactive)
same,IC50,cells,23.9 µM (active)
same,CC50,[9],32.4 µM (active)
same,IC50,[10],14.3 µM (inactive)
same,IC50,[11],24.5 µM (inactive)
COC(=O)N1CCC2(CCN(Cc3nccs3)CC2)CC1,AC50,Cytochrome P450 3A4,inconclusive
S=c1[nH]nc(-c2ccco2)n1Cc1ccccc1,IC50,Beta-lactamase [12],> 59.6 µM (inactive)
same,IC50,Beta-lactamase [13],> 59.6 µM (inactive)
same,IC50,Beta-lactamase [14],> 59.6 µM (inactive)
same,IC50,[15],> 100 µM (inactive)
same,IC50,[16],2.89 µM (active)
same,AC50,[17],7.95 µM (active)
Cc1nn(C(C)(C)C)c(OC(=O)c2cccs2)c1Sc1ccccc1,IC50,[18],5.36 µM (active)
COc1ccc2c(c1)cc(C)c1nnc(SCC(=O)N(C)c3nc(-c4ccccc4)cs3)n12,IC50,Cannabinoid receptor 1,> 32 µM (inactive)
same,EC50,Cannabinoid receptor 2 [19],> 32 µM (inactive)
same,EC50,[20],> 32 µM (inactive)
same,IC50,Cannabinoid receptor 2 [21],> 32 µM (inactive)
O=c1c2ccccc2nc2n1C1(CCCCC1)Cc1ccccc1-2,AC50,[22],2.06 µM (active)
same,IC50,[18],2.41 µM (active)
Cc1cc(C)c(S(=O)(=O)Nc2ccc3ccccc3c2)c(C)c1,IC50,[23],> 100 µM (not active)
same,IC50,[24],> 100 µM (inactive)
COc1ccc2cc(C)c3nnc(SCC(=O)Nc4nc(-c5ccc(F)cc5)cs4)n3c2c1,IC50,Cannabinoid receptor 1,> 32 µM (inactive)
same,EC50,Cannabinoid receptor 2 [19],> 32 µM (inactive)
same,EC50,[20],0.164 µM (active)
same,EC50,[25],< 0.5 µM (active)
same,IC50,Cannabinoid receptor 2 [21],> 32 µM (inactive)
CCOc1cc(C)c(C(C)C)cc1S(=O)(=O)Nc1cccnc1,IC50,[24],18.9 µM (active)
Cc1ccc(C(=O)c2c[nH]c(C(=O)NCCCN3CCOCC3)c2)cc1,AC50,Cytochrome P450 3A4,inconclusive
Cc1nnc(N/N=C/c2ccc(O)c([N+](=O)[O-])c2)nc1O,EC50,"Troponin, cardiac muscle",> 71.5 µM (inactive)
